The record followed here is publication PMC7701510, “Identification of HN252 as a potent inhibitor of protein phosphatase PPM1B” (Journal of Cellular and Molecular Medicine, 2020).

Test [1] deals with HL7702 cells with PPM1B shRNA. The test can be described thus: Phospho Explorer Antibody Microarray, PPM1B knockdown plus HN252. The following applies: in the presence of HN252.
Protocol: Phosphorylation profiling was performed by using the Phospho Explorer Antibody Microarray from Full Moon BioSystems, Inc (Sunnyvale, CA), according to the protocol which was previously described. ^24 In brief, cell lysates obtained from HL7702 cells treated by HN252 or DMSO for different hours or transfected with lentiviral vectors carrying shRNAs for 36 h were biotinylated with the Antibody Array Assay Kit (Full Moon BioSystems, Inc), and the data were analysed with the GenePixTM Pro 4.0 image analysis software.
In the next test the target is T1, PPM1B-R33K (Homo sapiens, UniProt O75688, R33K).
T1 construct: inferred from pET-28a vector and Ni-NTA purification; made in house; host or cells: Escherichia coli BL21
T1 sequence (O75688 1-479 R33K): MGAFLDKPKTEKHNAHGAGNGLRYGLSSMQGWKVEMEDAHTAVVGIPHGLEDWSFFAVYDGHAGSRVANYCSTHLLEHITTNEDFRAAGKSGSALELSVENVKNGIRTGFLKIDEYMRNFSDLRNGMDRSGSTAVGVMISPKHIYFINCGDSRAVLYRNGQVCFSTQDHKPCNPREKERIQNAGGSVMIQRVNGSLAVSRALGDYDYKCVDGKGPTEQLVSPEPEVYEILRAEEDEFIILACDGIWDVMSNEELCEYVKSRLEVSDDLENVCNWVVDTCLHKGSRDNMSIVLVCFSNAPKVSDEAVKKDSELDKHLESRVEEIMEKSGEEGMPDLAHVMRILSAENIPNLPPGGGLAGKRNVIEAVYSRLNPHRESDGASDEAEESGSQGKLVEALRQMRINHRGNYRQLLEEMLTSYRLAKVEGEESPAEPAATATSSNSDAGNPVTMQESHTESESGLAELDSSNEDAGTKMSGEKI
The test can be described thus: pNPP hydrolysis assay with PPM1B mutant. It is filed as biochemical. To be noted: pNPP substrate, pH 7.0, 37°C. The procedure:
Escherichia coli BL21 strain was transformed with pET‐28a bacterial expression vector harbouring PPM1B and its mutants. ^17 The fusion proteins were induced to be expressed with 0.5 mM isopropyl‐β‐D‐thiogalactoside (IPTG) and purified from bacterial lysate by Ni‐NTA chromatographic matrices (Qiagen) and AKTA FPLC (GE Healthcare Life Sciences) using a Superdex Increase 200 column.
The kinetic assays of PPM1B were carried out at 37°C in 0.1 M acetic acid buffer (50 mM Tris, 40 mM Mn^2+, pH 7.0). The p‐nitrophenyl phosphate (pNPP, Sigma) was used as the substrate which could be conveniently measured at 405 nm. Reactions were started by addition of pNPP to a reaction mixture containing PPM1B (0.4 μM PPM1B, final concentration) and various concentrations of HN252 and stopped by addition of 0.5 M EDTA (pH 10.0) after an appropriate time. The Km value of PPM1B towards pNPP hydrolysis (3.6 mM for pNPP) was used to determine the IC50. The IC50 values, the inhibition constant Ki and inhibition pattern were evaluated as previously described. ^18 The kinetic assays of HN252 towards to other protein phosphatases were carried out as previously described. ^19

A further test concerns HL7702 cells. Description: Phospho Explorer Antibody Microarray, HN252 treatment. Type of test: cell-based. The following applies: 2-hours exposure, HN252 5 μM.
For a further test, the target named is PRL. The test can be described thus: pNPP hydrolysis phosphatase assay (selectivity panel). To be noted: pNPP as substrate. Type of test: biochemical.
In another test the target is T2, SSH2 (Homo sapiens, UniProt Q76I76).
T2 sequence (Q76I76 1-1423): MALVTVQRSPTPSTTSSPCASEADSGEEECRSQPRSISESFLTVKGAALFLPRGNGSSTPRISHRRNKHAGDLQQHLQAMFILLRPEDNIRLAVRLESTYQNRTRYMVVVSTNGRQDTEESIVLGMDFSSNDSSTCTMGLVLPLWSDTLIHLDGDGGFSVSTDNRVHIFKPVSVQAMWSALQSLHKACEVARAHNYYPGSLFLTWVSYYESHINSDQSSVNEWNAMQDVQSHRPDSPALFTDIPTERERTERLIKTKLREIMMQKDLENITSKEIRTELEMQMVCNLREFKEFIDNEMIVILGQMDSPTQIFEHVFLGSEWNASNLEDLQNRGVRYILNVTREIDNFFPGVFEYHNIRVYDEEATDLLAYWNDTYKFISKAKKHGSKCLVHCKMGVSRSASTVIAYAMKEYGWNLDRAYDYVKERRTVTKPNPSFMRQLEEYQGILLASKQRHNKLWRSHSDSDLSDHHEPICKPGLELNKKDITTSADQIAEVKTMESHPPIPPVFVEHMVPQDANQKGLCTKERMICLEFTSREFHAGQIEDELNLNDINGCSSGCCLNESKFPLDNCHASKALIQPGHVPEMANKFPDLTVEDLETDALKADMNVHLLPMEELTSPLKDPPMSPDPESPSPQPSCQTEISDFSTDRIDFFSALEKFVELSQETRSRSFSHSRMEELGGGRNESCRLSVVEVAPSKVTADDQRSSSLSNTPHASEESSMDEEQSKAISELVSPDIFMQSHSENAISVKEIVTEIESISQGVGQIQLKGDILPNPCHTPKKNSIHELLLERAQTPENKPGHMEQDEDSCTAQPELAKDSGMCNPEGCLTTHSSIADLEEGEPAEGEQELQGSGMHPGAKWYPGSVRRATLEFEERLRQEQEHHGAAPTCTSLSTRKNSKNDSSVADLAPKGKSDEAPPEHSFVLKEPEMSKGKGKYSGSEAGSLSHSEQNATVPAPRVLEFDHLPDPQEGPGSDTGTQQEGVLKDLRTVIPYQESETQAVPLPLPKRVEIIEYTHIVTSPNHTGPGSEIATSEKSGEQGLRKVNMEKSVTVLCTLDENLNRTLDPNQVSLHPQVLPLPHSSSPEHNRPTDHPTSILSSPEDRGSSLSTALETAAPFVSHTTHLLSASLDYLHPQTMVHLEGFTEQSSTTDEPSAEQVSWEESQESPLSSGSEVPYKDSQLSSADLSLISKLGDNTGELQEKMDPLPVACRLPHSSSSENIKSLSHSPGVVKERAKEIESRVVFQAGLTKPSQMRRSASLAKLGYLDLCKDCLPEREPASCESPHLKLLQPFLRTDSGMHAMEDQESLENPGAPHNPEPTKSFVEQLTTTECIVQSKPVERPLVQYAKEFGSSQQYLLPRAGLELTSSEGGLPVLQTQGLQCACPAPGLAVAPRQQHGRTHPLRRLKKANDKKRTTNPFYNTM
The test is described as above. Type of test: biochemical. The following applies: pNPP as substrate.

For `Nc1cc(-c2ccc(-c3ccc(O)c(O)c3)cc2)ccc1C(=O)O` [HN252], in test [1], the “number of proteins with further enhanced phosphorylation compared to PPM1B knockdown (>1.5-fold)” value is recorded as 8. Also, the IC50 against PPM1B-R33K was 58.6 ± 10 µM; against PRL, above 50 µM; on SSH2 it was 55.1 ± 2.88 µM. Moreover, the “number of proteins with enhanced phosphorylation (1.5-fold vs control) also elevated in PPM1B knockdown cells” value with HL7702 cells is on record as 30.

One may read the IC50 as the concentration that gives 50% inhibition.
